Test results reported in patent US20150173369A1, “S[…] CONTROL AND IMPROVED CROP TOLERANCE FROM COMBINATIONS OF 2,4-D-CHOLINE, GLYPHOSATE, AND G[…] 2,4-D-, GLYPHOSATE- AND GLUFOSINATE-TOLERANT SOYBEANS, CORN, COTTON AND OTHER CROP AREAS” (Dow AgroSciences LLC, priority 2013, published 2015).
“And” between values parts separate entries of the source, which are not always exact repeats. Equal values may be shown once.

Tests used:
[1] = system: Ambrosia trifida L. (giant ragweed, AMBTR); assay: Field trials, post-emergence weed control (% visual control); type: in vivo; details: 542 g ae/ha alone
Experimental: (§1) Field trials were conducted under agricultural field conditions in multiple states in the United States, including but not limited to Arkansas, Iowa, Illinois, Indiana, Kansas, Minnesota, Mississippi, Missouri, New York, Tennessee and Wisconsin. Trials were established as RCB (randomized complete block) design, with 3-4 replicates per treatment, and plot sizes varying from 5-10 feet (ft) wide by 12-30 ft long. Treatments were applied with small plot backpack sprayers, using pressurized carbon dioxide (CO2) as propellant. Pressure varied from 17-52 pounds per square inch (psi), with spray tips typically of a Flat Fan type applying water diluent at 15 gallons per acre (GPA). Boom sizes varied from 5-11 ft in width. Treatments were applied to soybean, cotton, corn or fallow crop land. Weed sizes varied, but all treatments were applied as post-emergence treatments to weeds from 2 leaf to 2 tiller growth stages varying from 3 to 17 inches in height. The weed spectrum included, but was not limited to, Amaranthus palmeri S. Wats. (Palmer amaranth, AMAPA), Ambrosia trifida L. (giant ragweed, AMBTR), Conyza canadensis (L.) Cronq. (horseweed, ERICA) and Salsola tragus L. (Russian thistle, SASKR).
(§2) Glyphosate-, 2,4-D- and glufosinate-tolerant soybeans, corn or cotton comprising genes for tolerance for each herbicide as described above were used in all trials either as a breeding stack of one to three herbicide-tolerant events or as a molecular stack where all three herbicide tolerance traits were transformed into a single event.
(§3) The 2,4-D-choline salt plus glyphosate premix formulation was a 400 g ae/L SL containing 195 g ae/L 2,4-D-choline salt and 205 g ae/L glyphosate-dimethylammonium (DMA) salt. […] All treatments were mixed in water at appropriate formulated product rates to achieve the desired rates as shown based on a unit area of application (hectare). Treatments were rated at 1 to 28 days after application (DAA) as compared to the untreated control plants. The trial sites had naturally occurring populations of weeds. The treated plots and control plots were rated blind at various intervals after application.
(§4) Colby's equation was used to determine the herbicidal effects expected from the mixtures (Colby, S. R. Calculation of the synergistic and antagonistic response of herbicide combinations. Weeds 1967, 15, 20-22). A t-test (alpha=0.05) between Colby predictions and observed combinations was used to test for significant differences indicating synergy or antagonism using replicate data. The results presented in the Tables were significant according to the described criteria. The following equation was used to calculate the expected activity of mixtures containing three active ingredients, A. B, and C: […]

[2] = system: Conyza canadensis (L.) Cronq. (horseweed, ERICA); assay: as above; type: in vivo; details: ERICA 14DAA; 542 g ae/ha alone
Experimental: as §1, §2, §3, §4

[3] = system: Amaranthus palmeri S. Wats. (Palmer amaranth, AMAPA); assay: as above; type: in vivo; details: 542 g ae/ha alone
Experimental: as §1, §2, §3, §4

[4] = system: Salsola tragus L. (Russian thistle, SASKR); assay: as above; type: in vivo; details: 542 g ae/ha alone
Experimental: as §1, §2, §3, §4

[5] = system: AAD12 Soybean (GLXMA); assay: Field trials, crop tolerance (% visual crop injury); type: in vivo, Glycine max L.
Experimental: as §1, §2, §3
as §4, with “The results presented in the Tables were significant according to the described criteria.” left out

CP(=O)(O)CCC(N)C(=O)O (centres unmarked) [Glufosinate-Ammonium, ammonium (3-amino-3-carboxypropyl)(methyl)phosphinate]
Mean % Weed Control ([1]; AMBTR 8DAA): 56.7%
Mean % Weed Control ([1]; AMBTR 21DAA): 36.7%
Mean % Weed Control [2]: 76.8%
Mean % Weed Control ([3]; AMAPA 7DAA): 67.5%
Mean % Weed Control ([3]; AMAPA 8DAA): 32.5%
Mean % Weed Control ([3]; AMAPA 11DAA): 33.8%
Mean % Weed Control ([3]; AMAPA 13DAA): 31.3%
Mean % Weed Control ([3]; AMAPA 14DAA): 10.0%
Mean % Weed Control ([3]; AMAPA 16DAA): 36.7%
Mean % Weed Control ([3]; AMAPA 21DAA): 38.8%
Mean % Weed Control ([3]; AMAPA 23DAA): 21.7%
Mean % Weed Control ([4]; SASKR 21DAA): 13.8%
Mean % Weed Control ([4]; SASKR 28DAA): 15%
Mean % visual crop injury ([5]; GLXMA 1DAA, 542 g ae/ha alone): 12.5%
Mean % visual crop injury ([5]; GLXMA 1DAA, 822 g ae/ha alone): 16.3%
Mean % visual crop injury ([5]; GLXMA 1DAA, 1084 g ae/ha alone): 20.0%
Mean % visual crop injury ([5]; GLXMA 2DAA, 822 g ae/ha alone): 9.5% and 12.3% and 11.3% and 8.3% and 7.5% and 7.3% and 13.8%
Mean % visual crop injury ([5]; GLXMA 2DAA, 1084 g ae/ha alone): 13.0% and 15.5% and 11.3% and 11.8% and 8.5% and 7.8% and 7.5%
Mean % visual crop injury ([5]; GLXMA 4DAA, 542 g ae/ha alone): 3.8% and 2.8% and 6.3%
Mean % visual crop injury ([5]; GLXMA 5DAA, 542 g ae/ha alone): 4.0%
Mean % visual crop injury ([5]; GLXMA 5DAA, 1084 g ae/ha alone): 7.8%
Mean % visual crop injury ([5]; GLXMA 6DAA, 823 g ae/ha alone): 33.3%
Mean % visual crop injury ([5]; GLXMA 7DAA, 542 g ae/ha alone): 3.3%
Mean % visual crop injury ([5]; GLXMA 8DAA, 542 g ae/ha alone): 2.8%
Mean % visual crop injury ([5]; GLXMA 9DAA, 822 g ae/ha alone): 5.5%
Mean % visual crop injury ([5]; GLXMA 9DAA, 1084 g ae/ha alone): 6.0%
Mean % visual crop injury ([5]; GLXMA 10DAA, 1084 g ae/ha alone): 8.5% and 10.0%
Mean % visual crop injury ([5]; GLXMA 13DAA, 823 g ae/ha alone): 10.7%
Mean % visual crop injury ([5]; GLXMA 13DAA, 1084 g ae/ha alone): 8.5%
Mean % visual crop injury ([5]; GLXMA 14DAA, 542 g ae/ha alone): 5.8% and 12.5%
Mean % visual crop injury ([5]; GLXMA 15DAA, 542 g ae/ha alone): 4.5%
Mean % visual crop injury ([5]; GLXMA 15DAA, 822 g ae/ha alone): 2.3% and 5.0%
Mean % visual crop injury ([5]; GLXMA 15DAA, 1084 g ae/ha alone): 5.5% and 8.5% and 2.3%
Mean % visual crop injury ([5]; GLXMA 16DAA, 542 g ae/ha alone): 3.0%
Mean % visual crop injury ([5]; GLXMA 16DAA, 822 g ae/ha alone): 4.0%
Mean % visual crop injury ([5]; GLXMA 16DAA, 1084 g ae/ha alone): 5.0% and 5.5%
Mean % visual crop injury ([5]; GLXMA 21DAA, 542 g ae/ha alone): 4.0%
Mean % visual crop injury ([5]; GLXMA 21DAA, 822 g ae/ha alone): 5.0%
Mean % visual crop injury ([5]; GLXMA 21DAA, 1084 g ae/ha alone): 6.0%
Mean % visual crop injury ([5]; table title: % Visual Necrosis, GLXMA 2DAA, 1084 g ae/ha alone): 25.0%
Mean % visual crop injury ([5]; table title: % Visual Necrosis, GLXMA 3DAA, 542 g ae/ha alone): 0.0%
Mean % visual crop injury ([5]; table title: % Visual Necrosis, GLXMA 3DAA, 822 g ae/ha alone): 0.8%
Mean % visual crop injury ([5]; table title: % Visual Necrosis, GLXMA 3DAA, 1084 g ae/ha alone): 3.0% and 8.5% and 1.5% and 1.3%
Mean % visual crop injury ([5]; table title: % Visual Necrosis, GLXMA 5DAA, 542 g ae/ha alone): 2.8%
Mean % visual crop injury ([5]; table title: % Visual Necrosis, GLXMA 7DAA, 542 g ae/ha alone): 0.5% and 0.3%
Mean % visual crop injury ([5]; table title: % Visual Necrosis, GLXMA 7DAA, 822 g ae/ha alone): 0.8% and 0.0% and 10.0% and 1.0% and 1.3%
Mean % visual crop injury ([5]; table title: % Visual Necrosis, GLXMA 7DAA, 1084 g ae/ha alone): 3.3% and 1.3% and 10.0% and 2.0% and 2.3%
Mean % visual crop injury ([5]; table title: % Visual Necrosis, GLXMA 8DAA, 822 g ae/ha alone): 7.5%
Mean % visual crop injury ([5]; table title: % Visual Necrosis, GLXMA 8DAA, 1084 g ae/ha alone): 10.0% and 12.5% and 6.5%
Mean % visual crop injury ([5]; table title: % Visual Necrosis, GLXMA 9DAA, 822 g ae/ha alone): 6.0%
Mean % visual crop injury ([5]; table title: % Visual Necrosis, GLXMA 10DAA, 1084 g ae/ha alone): 2.3%
Mean % visual crop injury ([5]; table title: % Visual Necrosis, GLXMA 14DAA, 822 g ae/ha alone): 0.0% and 1.0%
Mean % visual crop injury ([5]; table title: % Visual Necrosis, GLXMA 14DAA, 1084 g ae/ha alone): 5.0% and 2.0%
Mean % visual crop injury ([5]; table title: % Visual Necrosis, GLXMA 16DAA, 542 g ae/ha alone): 3.0%
Mean % visual crop injury ([5]; table title: % Visual Necrosis, GLXMA 16DAA, 822 g ae/ha alone): 5.0%
Mean % visual crop injury ([5]; table title: % Visual Necrosis, GLXMA 16DAA, 1084 g ae/ha alone): 1.8%
